Broadly, the Ki is a dissociation constant, usually derived from enzyme kinetics or from competition with a known ligand.

The target of one data set is T1, Androgen receptor (Homo sapiens, UniProt P10275).
T1 sequence (P10275 whole entry): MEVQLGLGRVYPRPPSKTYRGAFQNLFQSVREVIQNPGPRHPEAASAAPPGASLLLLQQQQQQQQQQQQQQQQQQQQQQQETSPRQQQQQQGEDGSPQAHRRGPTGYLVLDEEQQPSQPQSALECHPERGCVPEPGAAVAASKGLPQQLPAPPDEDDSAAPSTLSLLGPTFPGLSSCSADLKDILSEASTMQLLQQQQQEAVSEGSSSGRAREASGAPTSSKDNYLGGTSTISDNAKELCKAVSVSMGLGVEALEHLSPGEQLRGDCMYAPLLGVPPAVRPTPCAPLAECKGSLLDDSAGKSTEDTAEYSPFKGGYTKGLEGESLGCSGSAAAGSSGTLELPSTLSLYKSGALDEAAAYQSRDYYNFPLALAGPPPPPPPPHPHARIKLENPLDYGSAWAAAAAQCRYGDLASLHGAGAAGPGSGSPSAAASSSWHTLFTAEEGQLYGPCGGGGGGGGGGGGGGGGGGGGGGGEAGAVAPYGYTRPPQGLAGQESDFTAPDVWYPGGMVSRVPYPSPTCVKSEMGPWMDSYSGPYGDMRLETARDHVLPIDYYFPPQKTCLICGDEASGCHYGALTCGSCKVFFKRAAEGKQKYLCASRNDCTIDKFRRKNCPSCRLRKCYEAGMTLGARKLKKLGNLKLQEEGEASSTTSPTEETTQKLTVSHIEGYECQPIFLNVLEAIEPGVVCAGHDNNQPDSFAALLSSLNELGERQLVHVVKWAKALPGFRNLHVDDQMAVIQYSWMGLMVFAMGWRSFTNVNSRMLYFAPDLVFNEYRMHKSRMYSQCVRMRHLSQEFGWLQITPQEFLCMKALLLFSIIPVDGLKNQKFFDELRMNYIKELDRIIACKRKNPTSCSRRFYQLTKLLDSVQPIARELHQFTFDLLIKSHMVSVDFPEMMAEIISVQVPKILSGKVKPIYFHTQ
The data set is described as follows: Binding affinity to androgen receptor.
Settings: not given
For `CCC(CC)(c1ccc(OCC(=O)C(C)(C)C)c(C)c1)c1ccc(OC[C@@H](O)CO)c(C)c1`, the Ki was 1800 nM.

Molecule `CCC(CC)(c1ccc(OCC(=O)C(C)(C)C)c(C)c1)c1ccc(OC[C@H](O)CO)c(C)c1` yielded a Ki of 1100 nM.

As to `CCC(CC)(c1ccc(OC[C@H](O)CO)c(C)c1)c1ccc(OC[C@@H](O)C(C)(C)C)c(C)c1`, the Ki stood at 1100 nM.

Regarding `CCC(CC)(c1ccc(OC[C@@H](O)CO)c(C)c1)c1ccc(OC[C@@H](O)C(C)(C)C)c(C)c1`, the affinity, expressed as Ki, was 1100 nM.

Molecule `CCC(CC)(c1ccc(OC[C@@H](O)CO)c(C)c1)c1ccc(OC[C@H](O)C(C)(C)C)c(C)c1` returned a Ki of 1000 nM.

In the case of `CCC(CC)(c1ccc(OC[C@H](O)CO)c(C)c1)c1ccc(OC[C@H](O)C(C)(C)C)c(C)c1`, the affinity, expressed as Ki, was 1000 nM.

The test system of another data set is HL-60. Briefly: Selectivity index, ratio of EC50 for Vitamin-D activity at VDR receptor in human HL60 cells to EC50 for antiandrogen activity against androgen receptor in androgen-dependent mouse SC3 cells. Format: cell-based.
Settings: not given
`CCC(CC)(c1ccc(OCC(O)C(C)(C)CCCc2ccccc2)c(C)c1)c1ccc(OC[C@@H](O)CO)c(C)c1` (stereo partly drawn): the Ratio EC50 was found to be 28.

For `CCC(CC)(c1ccc(OCC(O)C(C)(C)CCc2ccccc2)c(C)c1)c1ccc(OC[C@@H](O)CO)c(C)c1` (stereo partly drawn), the Ratio EC50 worked out at 8.1.

Consider `CCC(CC)(c1ccc(OCC(O)C(C)(C)Cc2ccccc2)c(C)c1)c1ccc(OC[C@@H](O)CO)c(C)c1` (stereo partly drawn), for which the Ratio EC50 was 6.5.

Turning to `CCC(CC)(c1ccc(OCC(=O)C(C)(C)Cc2ccccc2)c(C)c1)c1ccc(OC[C@@H](O)CO)c(C)c1`, the Ratio EC50 was less than 2.1.

As for `CCC(CC)(c1ccc(OCC(=O)C(C)(C)CCCc2ccccc2)c(C)c1)c1ccc(OC[C@@H](O)CO)c(C)c1`, the Ratio EC50 is more than 3.1.

Turning to `CCC(CC)(c1ccc(OCC(O)C23CC4CC(CC(C4)C2)C3)c(C)c1)c1ccc(OC[C@@H](O)CO)c(C)c1` (stereo partly drawn), the Ratio EC50 was less than 2.2.

For the molecule `CCC(CC)(c1ccc(OCC(=O)C(C)(C)CCc2ccccc2)c(C)c1)c1ccc(OC[C@@H](O)CO)c(C)c1`, the Ratio EC50 was determined as 21.

Tested on in another data set: not listed separately
Briefly: Toxicity in androgen-dependent mouse SC3 cells at 30 uM. Format: cell-based. To be noted: sc-3, 30 µM.
As to `CCC(CC)(c1ccc(OC[C@@H](O)CO)c(C)c1)c1ccc(O[C@@H]2CN(Cc3ccccc3)C[C@@H]2O)c(C)c1`, the Activity entry is reported as “Toxic”.

For `CCC(CC)(c1ccc(OCC(O)C(C)(C)CCCCc2ccccc2)c(C)c1)c1ccc(OC[C@@H](O)CO)c(C)c1` (stereo partly drawn), the Activity result is recorded as “Toxic”.

Turning to `CCC(CC)(c1ccc(OCC(=O)C(C)(C)Cc2ccccc2)c(C)c1)c1ccc(OC[C@@H](O)CO)c(C)c1`, the Activity result is given as “Toxic”.

For `CCC(CC)(c1ccc(OCC(O)C(C)(C)Cc2ccc3ccccc3c2)c(C)c1)c1ccc(OC[C@@H](O)CO)c(C)c1` (stereo partly drawn), the Activity result is given as “Toxic”.

Consider `CCC(CC)(c1ccc(OCC(O)C23CC4CC(CC(C4)C2)C3)c(C)c1)c1ccc(OC[C@@H](O)CO)c(C)c1` (stereo partly drawn), for which the Activity result is “Toxic”.
